These results are taken from ChEMBL document CHEMBL1157525, “The design and synthesis of potent and cell-active allosteric dual Akt 1 and 2 inhibitors devoid of hERG activity” (Bioorg Med Chem Lett, 2008).

Some results are limits rather than exact numbers.

For test [1], the target named is T1, RAC-beta serine/threonine-protein kinase (Homo sapiens, UniProt P31751). Briefly: Inhibition of Akt2 by cellular assay.
Test [2] deals with Voltage-gated inwardly rectifying potassium channel KCNH2 (Homo sapiens, UniProt Q12809). As to the kind of experiment: Inhibition of human ERG in embryonic kidney cells by radioligand-binding competition assay.
Chain of Voltage-gated inwardly rectifying potassium channel KCNH2 (Q12809 whole entry): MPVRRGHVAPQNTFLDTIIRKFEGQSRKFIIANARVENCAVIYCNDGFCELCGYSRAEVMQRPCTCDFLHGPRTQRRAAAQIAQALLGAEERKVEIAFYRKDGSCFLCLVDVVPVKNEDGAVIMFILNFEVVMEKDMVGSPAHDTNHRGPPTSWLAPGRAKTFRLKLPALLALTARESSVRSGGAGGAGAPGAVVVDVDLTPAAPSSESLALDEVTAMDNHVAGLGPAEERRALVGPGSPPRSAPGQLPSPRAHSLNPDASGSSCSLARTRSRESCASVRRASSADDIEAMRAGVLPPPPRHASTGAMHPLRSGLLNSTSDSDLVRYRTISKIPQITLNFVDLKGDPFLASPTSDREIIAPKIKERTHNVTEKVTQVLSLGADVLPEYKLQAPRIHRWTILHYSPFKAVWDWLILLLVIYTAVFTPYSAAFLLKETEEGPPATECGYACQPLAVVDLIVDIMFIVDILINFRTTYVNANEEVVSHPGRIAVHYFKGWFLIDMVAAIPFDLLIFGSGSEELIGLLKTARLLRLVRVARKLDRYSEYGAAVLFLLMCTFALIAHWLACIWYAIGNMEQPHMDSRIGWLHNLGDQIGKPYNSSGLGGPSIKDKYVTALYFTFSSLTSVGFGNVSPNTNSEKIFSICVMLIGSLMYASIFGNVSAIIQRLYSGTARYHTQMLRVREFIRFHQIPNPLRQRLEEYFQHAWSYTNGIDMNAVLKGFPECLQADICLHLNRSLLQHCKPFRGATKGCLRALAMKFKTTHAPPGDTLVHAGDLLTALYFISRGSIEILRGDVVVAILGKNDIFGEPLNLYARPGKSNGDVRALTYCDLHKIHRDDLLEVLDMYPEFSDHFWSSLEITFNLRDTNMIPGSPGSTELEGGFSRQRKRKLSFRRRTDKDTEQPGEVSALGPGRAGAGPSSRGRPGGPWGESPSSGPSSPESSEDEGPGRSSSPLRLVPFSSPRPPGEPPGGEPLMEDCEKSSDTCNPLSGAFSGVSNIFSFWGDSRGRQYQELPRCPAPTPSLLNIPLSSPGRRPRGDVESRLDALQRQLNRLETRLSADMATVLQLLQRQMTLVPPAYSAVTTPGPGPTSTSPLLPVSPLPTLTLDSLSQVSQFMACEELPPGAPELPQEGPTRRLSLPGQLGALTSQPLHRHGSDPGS
For test [3], the target named is T2, RAC-alpha serine/threonine-protein kinase (Homo sapiens, UniProt P31749). As to the kind of experiment: Inhibition of Akt1 by cellular assay.
T2 sequence (P31749 whole entry): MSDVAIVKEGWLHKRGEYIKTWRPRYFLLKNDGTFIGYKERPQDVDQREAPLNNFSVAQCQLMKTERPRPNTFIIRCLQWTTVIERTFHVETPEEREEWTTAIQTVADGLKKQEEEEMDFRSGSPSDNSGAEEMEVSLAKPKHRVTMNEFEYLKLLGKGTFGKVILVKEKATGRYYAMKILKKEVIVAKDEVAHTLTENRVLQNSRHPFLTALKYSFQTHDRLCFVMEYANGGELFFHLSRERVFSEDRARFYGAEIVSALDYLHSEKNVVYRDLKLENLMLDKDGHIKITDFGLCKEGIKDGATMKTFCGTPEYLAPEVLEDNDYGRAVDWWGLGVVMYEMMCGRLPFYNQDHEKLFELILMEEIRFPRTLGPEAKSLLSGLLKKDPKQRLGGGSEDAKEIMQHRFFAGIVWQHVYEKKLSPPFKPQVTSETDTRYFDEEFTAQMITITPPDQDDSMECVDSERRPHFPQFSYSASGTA
The target in test [4] is T1, RAC-beta serine/threonine-protein kinase. As to the kind of experiment: Inhibition of Akt2.
For test [5], the target named is T2, RAC-alpha serine/threonine-protein kinase. As to the kind of experiment: Inhibition of Akt1.

T1 sequence (P31751 whole entry): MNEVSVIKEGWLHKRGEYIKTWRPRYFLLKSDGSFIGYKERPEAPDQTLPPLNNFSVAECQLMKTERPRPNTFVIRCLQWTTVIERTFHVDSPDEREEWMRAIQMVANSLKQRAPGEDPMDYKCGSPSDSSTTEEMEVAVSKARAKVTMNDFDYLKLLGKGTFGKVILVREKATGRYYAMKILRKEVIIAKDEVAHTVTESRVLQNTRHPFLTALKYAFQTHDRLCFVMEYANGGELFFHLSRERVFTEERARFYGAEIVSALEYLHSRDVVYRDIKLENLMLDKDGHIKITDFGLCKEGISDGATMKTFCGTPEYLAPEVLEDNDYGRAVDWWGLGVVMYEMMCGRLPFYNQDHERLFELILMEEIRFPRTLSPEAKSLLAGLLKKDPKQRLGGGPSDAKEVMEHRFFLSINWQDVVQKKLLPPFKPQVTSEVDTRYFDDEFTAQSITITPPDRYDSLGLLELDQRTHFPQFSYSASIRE

What is called IC50 is the midpoint of a concentration-inhibition curve. The low end stands for inhibition by little substance, the high end for a need for much substance. For `CN(C)CCN1CCN(c2ncc3cc(-c4ccccc4)c(-c4ccc(CN5CCC(c6nnc(-c7ncccn7)[nH]6)CC5)cc4)nc3n2)CC1`, the IC50 in test [1] was found to be 130 nM; in test [2] it was 4800 nM; in test [3] it was 35 nM.

Regarding `CN1CCN(c2ncc3cc(-c4ccccc4)c(-c4ccc(CN5CCC(c6nnc(-c7ccc(N)nc7)[nH]6)CC5)cc4)nc3n2)CC1`, the figures for the IC50 in test [1], in test [2] and in test [3] were 84 nM, 6100 nM and 20 nM, respectively.

On to `CN1CCN(c2ccc3nc(-c4ccc(CN5CCC(c6nnc(-c7ccccn7)[nH]6)CC5)cc4)c(-c4ccccc4)nc3n2)CC1`, for which the IC50 in test [1] stood at 827 nM; in test [3] it was 1410 nM.

Consider `CN(C)CCN1CCN(c2ncc3cc(-c4ccccc4)c(-c4ccc(CN5CCC(c6nnc(-c7ccccn7)[nH]6)CC5)cc4)nc3n2)CC1`, for which the IC50 is 4 nM in test [4]; 39 nM in test [1]; 2100 nM in test [2]; 10 nM in test [3]; 4 nM in test [5].

Take `CN(C)CCN1CCN(c2ncc3cc(-c4ccccc4)c(-c4ccc(CN5CCC(c6nnc(-c7cc[n+]([O-])cc7)[nH]6)CC5)cc4)nc3n2)CC1`: the IC50 in test [1] was found to be 68 nM; in test [2] it was 7900 nM; in test [3], 33 nM.

For the molecule `Nc1ccc(-c2nnc(C3CCN(Cc4ccc(-c5nc6nc(N7CCN(CCO)CC7)ncc6cc5-c5ccccc5)cc4)CC3)[nH]2)cn1`, the IC50 in test [1] was 180 nM; in test [3] it was 38 nM.

On to `CN1CCN(c2ccc3nc(-c4ccccc4)c(-c4ccc(CN5CCC(c6nnc(-c7ccc(N)nc7)[nH]6)CC5)cc4)nc3n2)CC1`, for which the IC50 worked out at 225 nM in test [1] and 70 nM in test [3].

On to `CN1CCN(c2ncc3cc(-c4ccccc4)c(-c4ccc(CN5CCC(c6nnc(-c7ncccn7)[nH]6)CC5)cc4)nc3n2)CC1`, for which the IC50 was 40 nM in test [1] and 25 nM in test [3].

`CN1CCN(c2ncc3cc(-c4ccccc4)c(-c4ccc(CN5CCC(c6nnc(-c7ccc(=O)[nH]c7)[nH]6)CC5)cc4)nc3n2)CC1`: the IC50 stood at 188 nM in test [1] and 71 nM in test [3].

As for `CN(C)CCN1CCN(c2ncc3cc(-c4ccccc4)c(-c4ccc(CN5CCC(c6nnc(-c7ccc(=O)[nH]c7)[nH]6)CC5)cc4)nc3n2)CC1`, the IC50 was 98 nM in test [1], 800 nM in test [2] and 69 nM in test [3].

As to `CN(C)CCN1CCN(c2ccc3nc(-c4ccccc4)c(-c4ccc(CN5CCC(c6nnc(-c7ccccn7)[nH]6)CC5)cc4)nc3n2)CC1`, the IC50 in test [1] amounted to 43 nM; in test [3] it was 10 nM.

On to `CN1CCN(c2ccc3nc(-c4ccccc4)c(-c4ccc(CN5CCC(c6nnc(-c7ncccn7)[nH]6)CC5)cc4)nc3n2)CC1`, for which the IC50 came out at 192 nM in test [1] and 52 nM in test [3].

`CN(C)CCN1CCN(c2ccc3nc(-c4ccccc4)c(-c4ccc(CN5CCC(c6nc(-c7ncccn7)n[nH]6)CC5)cc4)nc3n2)CC1`: the IC50 is 116 nM in test [1], greater than 10000 nM in test [2] and 104 nM in test [3].

Take `O=c1ccc(-c2nnc(C3CCN(Cc4ccc(-c5nc6nc(N7CCN(CCO)CC7)ncc6cc5-c5ccccc5)cc4)CC3)[nH]2)c[nH]1`: the IC50 in test [1] was determined as 284 nM; in test [2], 6800 nM; in test [3] it was 127 nM.

In the case of `OCCN1CCN(c2ccc3nc(-c4ccccc4)c(-c4ccc(CN5CCC(c6nnc(-c7ccccn7)[nH]6)CC5)cc4)nc3n2)CC1`, the IC50 in test [1] was found to be 48 nM; in test [3], 13 nM.

Regarding `O=c1[nH]ccc2nc(-c3ccc(CN4CCC(c5nnc(-c6ncccn6)[nH]5)CC4)cc3)c(-c3ccccc3)cc12`, the IC50 in test [4] was 44 nM; in test [1], 69 nM; in test [2], greater than 10000 nM; in test [3], 23 nM; in test [5], 7 nM.

`COc1ccc(-c2nnc(C3CCN(Cc4ccc(-c5nc6cc[nH]c(=O)c6cc5-c5ccccc5)cc4)CC3)[nH]2)cn1`: the IC50 in test [4] turned out to be 16 nM; in test [1], 159 nM; in test [2], 1220 nM; in test [3], 40 nM; in test [5], 3 nM.

With `CN(C)CCN1CCN(c2ncc3cc(-c4ccccc4)c(-c4ccc(CN5CCC(c6nnc(-c7ccc(N)nc7)[nH]6)CC5)cc4)nc3n2)CC1`, the IC50 in test [1] was 140 nM; in test [3] it was 37 nM.

On to `OCCN1CCN(c2ncc3cc(-c4ccccc4)c(-c4ccc(CN5CCC(c6nc(-c7ncccn7)n[nH]6)CC5)cc4)nc3n2)CC1`, for which the results for the IC50 in test [1], in test [2] and in test [3] were 80 nM, greater than 10000 nM and 37 nM, respectively.

With `[O-][n+]1ccc(-c2nnc(C3CCN(Cc4ccc(-c5nc6nc(N7CCN(CCO)CC7)ncc6cc5-c5ccccc5)cc4)CC3)[nH]2)cc1`, the values for the IC50 in test [1], in test [2] and in test [3] were 146 nM, greater than 10000 nM and 67 nM, respectively.

For `O=c1ccc(-c2nnc(C3CCN(Cc4ccc(-c5nc6cc[nH]c(=O)c6cc5-c5ccccc5)cc4)CC3)[nH]2)c[nH]1`, the IC50 in test [4] is 8 nM; in test [1], 284 nM; in test [2], greater than 10000 nM; in test [3] it was 62 nM; in test [5] it was 1 nM.

On to `Nc1ccc(-c2nnc(C3CCN(Cc4ccc(-c5nc6nc(N7CCN(CCO)CC7)ccc6nc5-c5ccccc5)cc4)CC3)[nH]2)cn1`, for which the IC50 worked out at 230 nM in test [1] and 115 nM in test [3].

In the case of `O=c1[nH]ccc2nc(-c3ccc(CN4CCC(c5nnc(-c6cnccn6)[nH]5)CC4)cc3)c(-c3ccccc3)cc12`, the IC50 in test [4] was determined as 21 nM; in test [1] it was 405 nM; in test [3] it was 44 nM; in test [5], 4 nM.

As for `Nc1ccc(-c2nnc(C3CCN(Cc4ccc(-c5nc6cc[nH]c(=O)c6cc5-c5ccccc5)cc4)CC3)[nH]2)cn1`, the IC50 in test [4] worked out at 33 nM; in test [1], 165 nM; in test [2], 10000 nM; in test [3] it was 26 nM; in test [5] it was 4 nM.

`O=C1NCCc2nc(-c3ccc(CN4CCC(c5nnc(-c6ccccn6)[nH]5)CC4)cc3)c(-c3ccccc3)cc21`: the IC50 amounted to 26 nM in test [4]; 224 nM in test [1]; 2500 nM in test [2]; 16 nM in test [3]; 3.5 nM in test [5].

In the case of `CN1CCN(c2ncc3cc(-c4ccccc4)c(-c4ccc(CN5CCC(c6nnc(-c7cc[n+]([O-])cc7)[nH]6)CC5)cc4)nc3n2)CC1`, the IC50 came out at 185 nM in test [1], 9800 nM in test [2] and 88 nM in test [3].

Turning to `CN1CCN(c2ccc3nc(-c4ccccc4)c(-c4ccc(CN5CCC(c6nnc(-c7ccccn7)[nH]6)CC5)cc4)nc3n2)CC1`, the figures for the IC50 in test [1] and in test [3] were 92 nM and 18 nM, respectively.

Consider `OCCN1CCN(c2ccc3nc(-c4ccccc4)c(-c4ccc(CN5CCC(c6nc(-c7ncccn7)n[nH]6)CC5)cc4)nc3n2)CC1`, for which the results for the IC50 in test [1] and in test [3] were 190 nM and 72 nM, respectively.
